The text below walks through data of patent US11685782B2, “Methods of treating cancer using LSD1 inhibitors in combination with immunotherapy” (Children's Medical Center Corporation, priority 2017, dated 2023).

The subject of assay [1] is MCF-7 cells. The assay can be described thus: RT-qPCR of selected ERVs, interferons and ISGs in MCF-7 cells treated with GSK-LSD1 (compound screen). Conditions: GSK-LSD1 for 6 days, RT-qPCR normalized to GAPDH, relative to DMSO (FIG. 1A). It is filed as cell-based, human. As for the experimental part:
FIG. 1A is a bar graph showing quantitative reverse transcription polymerase chain reaction (RT-qPCR) analysis of selected endogenous retroviruses (ERVs) (HERV-E, HERV-F, HERV-K, HML-2, and ERVL), IFNs (IFN-α, IFN-β and IL-28) and ISGs (ISG15 and OASL) in human MCF-7 breast cancer cells treated with or without GSK-LSD1 for 6 days. The RT-qPCR data were normalized to GAPDH and then relative to DMSO. RT-qPCR was performed in duplicates and repeated two to three times. Error bars represent the standard error of mean (SEM). *p<0.05, **p<0.01, ***p<0.001, ns, not significant, as determined by unpaired t-test.
MCF-7, T47D, B16, LLC and D4m cells were cultured in normal DMEM supplemented with 10% FBS and 1% penicillin/streptomycin in 5% CO2 incubator at 37° C. All cell lines were cultured in 5% CO2 incubator at 37° C., and passaged every 2-3 days. […]
All reagents, buffers and containers used for RNA work were RNase-free grade or treated with 0.1% v/v DEPC (Sigma-Aldrich cat #D5758) if applicable, to eliminate RNase contaminants in this section and other relevant sections. […] The obtained cDNA samples were diluted and used for real-time quantitative PCR (RT-qPCR). […]
Of note, the PCR primers detected overall transcript levels of the corresponding ERV subfamilies, which may be transcribed from multiple genomic loc. […]

The subject of assay [2] is AGO2. Put plainly: Mass spectrometry of lysine methylation on FH-AGO2 purified from MCF-7 cells. In kind it is cell-based, human. To be noted: overexpressed FH-AGO2 from MCF-7 cells, mass spectrometry (FIG. 5I). From the text:
FIG. 5I is a picture of immunoblots showing purified FH-AGO2 from MCF-7 cells treated by LSD1 KD or GSK-LSD1 as determined by mass spectrometry for the identification of lysine methylation. sh-Ctrl ([…]; SEQ ID NO: 156) and sh-LSD1, GSK-LSD1(VGK(me)[…]; SEQ ID NO: 157).
To investigate whether LSD1 regulates AGO2 stability by controlling AGO2 methylation, overexpressed FH-AGO2 from MCF-7 cells with or without LSD1 inhibition were purified and used for mass spectrometry analysis. […] To validate this finding, an antibody was raised that preferentially recognized AGO2 peptides mono-methylated at K726 (K726me1) compared with un-methylated or di-methylated peptides (FIG. 5J). Furthermore, this antibody detected increased K726me1 on ectopically expressed AGO2 when LSD1 was inhibited, which can be abrogated by substituting K726 with arginine (K726R) or alanine (K726A) (FIGS. 5K and 5L). […] To gain more insights into this regulation, an in vitro demethylation assay was performed using immunoprecipitated FH-LSD1, FH-LSD1-K661A (catalytically compromised LSD1), FH-AGO2 and FH-AGO2-K726R proteins purified from mammalian cells. FH-LSD1 but not FH-LSD1-K661A decreased K726me1 level on FH-AGO2, but had no observable effects on FH-AGO2-K726R (FIGS. 5N and 5O).

For the compound `Cl.Cl.c1ccc([C@@H]2C[C@H]2NC2CCNCC2)cc1` (relative stereo) [GSK-LSD1, rel-N-[(1R,2S)-2-Phenylcyclopropyl]-4-Piperidinamine hydrochloride (1:2)], the “up-regulation of selected ERVs, type I and type III interferons and interferon-stimulated genes (ISGs)” value in assay [1] was “significantly induce the up-regulation”. In assay [2], the “methylation of AGO2 lysine 726 (K726)” value is “consistently mono-methylated”.
